We go through 17 compounds from BindingDB's records for patent US11945784 (Cornell University, 2024).

pIC50: −log10 of the molar value.

Sequence of Serine/threonine-protein kinase/endoribonuclease IRE1 (O75460 whole entry): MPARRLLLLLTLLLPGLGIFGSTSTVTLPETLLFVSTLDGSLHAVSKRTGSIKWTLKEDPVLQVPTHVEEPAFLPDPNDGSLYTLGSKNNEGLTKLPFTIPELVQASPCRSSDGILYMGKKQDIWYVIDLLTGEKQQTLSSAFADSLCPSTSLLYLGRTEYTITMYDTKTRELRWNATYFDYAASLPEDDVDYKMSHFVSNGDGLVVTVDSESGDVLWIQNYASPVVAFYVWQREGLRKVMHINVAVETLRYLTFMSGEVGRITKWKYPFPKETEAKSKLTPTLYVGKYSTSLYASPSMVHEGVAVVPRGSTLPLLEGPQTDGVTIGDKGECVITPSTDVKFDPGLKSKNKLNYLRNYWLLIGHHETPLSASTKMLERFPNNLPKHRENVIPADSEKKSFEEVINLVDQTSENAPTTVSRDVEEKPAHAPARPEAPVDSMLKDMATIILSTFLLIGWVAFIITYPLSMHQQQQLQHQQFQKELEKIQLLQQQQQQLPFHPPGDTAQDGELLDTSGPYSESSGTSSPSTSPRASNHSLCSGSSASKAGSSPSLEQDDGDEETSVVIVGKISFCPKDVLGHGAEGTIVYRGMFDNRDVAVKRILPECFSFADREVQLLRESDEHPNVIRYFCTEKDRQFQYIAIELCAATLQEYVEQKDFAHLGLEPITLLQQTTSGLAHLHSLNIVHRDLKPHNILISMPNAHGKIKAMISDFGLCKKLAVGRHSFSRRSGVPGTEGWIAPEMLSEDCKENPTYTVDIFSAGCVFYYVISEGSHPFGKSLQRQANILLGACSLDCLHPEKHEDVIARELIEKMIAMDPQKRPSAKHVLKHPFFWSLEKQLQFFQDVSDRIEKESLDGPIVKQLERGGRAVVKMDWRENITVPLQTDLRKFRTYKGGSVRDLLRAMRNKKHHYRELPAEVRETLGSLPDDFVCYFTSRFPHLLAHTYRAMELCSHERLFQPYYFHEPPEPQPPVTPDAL

In this assay the target is Serine/threonine-protein kinase/endoribonuclease IRE1 (Homo sapiens, UniProt O75460). The assay is described as follows: In Vitro FRET Assay. The method, then:
In vitro FRET assay was performed to evaluate the ability of select compounds to inhibit IRE1, the results of which are summarized in Table 3. To perform the in vitro FRET assay, 1× complete assay buffer (CAB; […], 50 mM sodium citrate pH 7.15, 1 mM magnesium acetate, 0.02% tween 20) was used to dilute SignalChem IRE1α protein to a final concentration of 2 nM. Selected compounds were serially diluted with DMSO in a non-binding black 384-well plate for a total of 15 ul in each well. 2 ul of the serially diluted compound or DMSO control were then added to new wells containing 98 ul of 1×CAB, for a total volume of 100 ul, 10 ul of which were then transferred to wells of a new plate. 5 ul of the diluted IRE1α was then added to each well. 5 ul of a […] was then added to each well. Fluorescence was then read over 30 minutes in kinetic mode (485/515 nm).Two RNA probes were used, XBP1 wildtype (SEQ ID NO: 2) which is able to be spliced by active IRE1α or XBP1 mutant (SEQ ID NO: 3) which is unable to be spliced. Each probe contained a 5′ 6-FAM modification and a 3′ IOWA Black FQ modification.A second FRET assay was performed to assess ATP-mediated inhibition. In this case, compounds and IRE1α were prepared and combined as discussed above, with the addition of ATP up to 1 mM final concentration. This mixture was incubated at room temperature for 60 minutes and then 5 ul of 400 nM XBP1 wildtype or mutant RNA probe was added. Plates were then read over 30 minutes in kinetic mode (485/515 nm) and rate of fluorescence increase calculated for different compound dilutions to determine IC50.
For `COc1cc(NS(=O)(=O)c2cnccc2Cl)ccc1/C=C/c1cnc(NC2CCC(N(C)C)CC2)nc1` (configuration not stated) [US11945784, Compound 65], the negative logarithm of the IC50 (pIC50) was above 9.00. Under `COc1nc(NS(=O)(=O)c2ccccc2Cl)c(F)cc1/C=C/c1cnc(NC2CCC(N)CC2)nc1` (configuration not stated) [US11945784, Compound 54] stands above 9.00.

For `COc1nc(NS(=O)(=O)c2ccccc2Cl)ccc1/C=C/c1cnc(NC2CCC(N3CCOCC3)CC2)nc1` (configuration not stated) [US11945784, Compound 57], the pIC50 was above 9.00. Under `Cc1nc(NS(=O)(=O)c2cnccc2Cl)ccc1/C=C/c1cnc(NC2CCC(N(C)C)CC2)nc1` (configuration not stated) [US11945784, Compound 62] stands above 9.00; under `COc1c(/C=C/c2cnc(NC3CCC(N(C)C)CC3)nc2)ccc(NS(=O)(=O)c2ccccc2Cl)c1F` (configuration not stated) [US11945784, Compound 66], above 9.00; under `CN(C)C1CCC(Nc2ncc(/C=C/c3ccc(NS(=O)(=O)c4cccc(Cl)c4Cl)nc3)cn2)CC1` (configuration not stated) [US11945784, Compound 63], above 9.00. The compound `COc1nc(NS(=O)(=O)c2ccccc2Cl)ccc1/C=C/c1cnc(NC2CCC(N3CCCCC3)CC2)nc1` (configuration not stated) [US11945784, Compound 60] had a negative-log IC50 (pIC50) above 9.00. `CN(C)C1CCC(Nc2ncc(/C=C/c3ccc(NS(=O)(=O)c4ccc(F)cc4Cl)nc3)cn2)CC1` (configuration not stated) [US11945784, Compound 61] had a negative-log IC50 (pIC50) above 9.00. Compound `CNC1CCC(Nc2ncc(/C=C/c3cc(F)c(NS(=O)(=O)c4ccccc4Cl)nc3OC)cn2)CC1` (configuration not stated) [US11945784, Compound 59] gave a negative logarithm of the IC50 (pIC50) above 9.00. To `CN(C)C1CCC(Nc2ncc(/C=C/c3ccc(NS(=O)(=O)c4cccc(F)c4Cl)nc3)cn2)CC1` (configuration not stated) [US11945784, Compound 68] belongs above 9.00.

Compound `COc1nc(NS(=O)(=O)c2ccccc2Cl)ccc1/C=C/c1cnc(NC2CCC(N3CCSCC3)CC2)nc1` (configuration not stated) [US11945784, Compound 64] had a negative-log IC50 (pIC50) above 9.00. To `COc1nc(NS(=O)(=O)c2cnccc2Cl)ccc1/C=C/c1cnc(NC2CCC(N(C)C)CC2)nc1` (configuration not stated) [US11945784, Compound 56] belongs above 9.00; to `CN(C)C1CCC(Nc2ncc(/C=C/c3ccc(NS(=O)(=O)c4ccccc4Cl)nn3)cn2)CC1` (configuration not stated) [US11945784, Compound 52], above 9.00; to `COc1cc(NS(=O)(=O)c2ccccc2Cl)c(F)cc1/C=C/c1cnc(NC2CCC(N(C)C)CC2)nc1` (configuration not stated) [US11945784, Compound 67], above 9.00. Under `NC1CCC(Nc2ncc(/C=C/c3ccc(NS(=O)(=O)c4ccccc4Cl)nn3)cn2)CC1` (configuration not stated) [US11945784, Compound 2] stands above 9.00; under `NC1CCC(Nc2ncc(/C=C/c3ccc(NS(=O)(=O)c4ccccc4Cl)c(F)c3)cn2)CC1` (configuration not stated) [US11945784, Compound 3], above 9.00; under `Cc1nc(NS(=O)(=O)c2ccccc2Cl)c(F)cc1/C=C/c1cnc(NC2CCC(N)CC2)nc1` (configuration not stated) [US11945784, Compound 58], above 9.00.

What is called pIC50 is the IC50 on a negative log10 scale, so that one unit is a factor of ten. Lower therefore signals a large IC50.
